Test results from ChEMBL document CHEMBL5518250, “Targeting KRAS Diversity: Covalent Modulation of G12X and Beyond in Cancer Therapy” (J Med Chem, 2024).

Test: Binding affinity to human recombinant His-tagged KRAS G12C/C118S mutant (1 to 169 residues) expressed in Escherichia coli assessed as inhibition constant by fluorescence based analysis

C=CC(=O)N1CCN(c2nc(=O)n(-c3c(C)ccnc3C(C)C)c3nc(-c4c(O)cccc4F)c(F)cc23)[C@@H](C)C1 [SOTORASIB]
Ki: 86 µM
